Data published in patent US20140113091A1, “MEDICAL SUPPLY” (Toray Industries, Inc., priority 2011, published 2014).

Test system: blood collected from volunteers
Experiment: Measurement of whole blood clotting time (Sonoclot, ACT ONSET value)
Design: species or system human
Procedure: To a cuvette (NON-ACTIVATED CLOTTING TEST KIT), 18 μL of physiological saline was placed, and 14.8 μL of calcicol was added thereto, followed by further adding 342 μL of blood supplemented with citric acid. Thereafter, the measurement using Sonoclot blood coagulation/platelet function analyzer (IMI Co., Ltd.) was carried out to define the obtained ACT ONSET value as whole blood clotting time.

## CC1CNc2c(cccc2S(=O)(=O)N[C@@H](CCCNC(=N)N)C(=O)N2CC[C@@H](C)C[C@@H]2C(=O)O)C1 (mixture of isomers) [argatroban]
2 μM argatroban solution
  whole blood clotting time: 531 s
10 μM argatroban solution
  whole blood clotting time: 746 s
20 μM argatroban solution
  whole blood clotting time: 849 s
